Measurements from article PMC12494099, “Discovery and Characterization of Novel IKZF1/3 Glue Degraders against Multiple Hematological Cancer Cell Lines” (Oncology Research, 2025).
Where two headings read alike, the source gives them in different places.

Key:
[1] = target: T1, IKZF2-HiBiT (Homo sapiens, UniProt Q9UKS7); experiment: Quantitative degradation assay using the HiBiT system (HEK293T); format: cell-based; conditions: dose response 24 h and time course 1 µM
T1 construct: expressed in transfected cells; host or cells: HEK293T
Procedure: (§1) An in vitro quantitative degradation assay utilizing the HiBiT system was carried out as previously described. To evaluate the degradation of IKZF1, IKZF2, and IKZF3 proteins, HEK293T cell lines stably expressing IKZF1-, IKZF2-, IKZF3-, GSPT1- or CK1α-HiBiT were cultured in 96-well plates at 12,000 cells per well. The cells were treated with different concentrations of the test compounds (MGD-A7 and MGD-C9) with concentrations of 0, 0.01, 0.033, 0.1, 0.33, 1, 3.3, 10 and 33 μM for the specified time intervals. After the treatment, cell lysis was carried out using the Nano-Glo HiBiT Lytic Detection System (#N3040, Promega). All lysis operations were strictly carried out according to the manufacturer’s specific protocol. Then, the SpectraMax iD3 instrument (Molecular Devices, San Jose, CA, USA) was used to detect the luminescent signals released by the HiBiT-tagged neosubstrates.

[2] = target: T2, CK1α-HiBiT (Homo sapiens, UniProt P48729); experiment: as above; format: cell-based; conditions: increased dosing to 10 μM, 24 h
T2 construct: expressed in transfected cells; host or cells: HEK293T
Procedure: as §1

[3] = target: T3, endogenous GSPT1 (Homo sapiens, UniProt P15170); experiment: Immunoblot analysis of endogenous protein; format: cell-based; conditions: both NCI-H929 and MV-4-11 cells, up to 10 μM, 24 h
T3 construct: endogenous in cells; host or cells: NCI-H929 and MV-4-11
Procedure: (§2) Cells (NCI-H929 and MV-4-11) were plated into 6-well plates. They were then treated with different concentrations (0, 0.01, 0.1, 1, 10 μM) of the compounds (MGD-A7, MGD-C9) or the designated time periods. Afterward, the cells were washed with phosphate-buffered saline (PBS, pH = 7.2–7.4, 1×). Next, they were lysed using RIPA buffer (#R0278-500ML, Sigma-Aldrich, MO, USA), and the cell lysates were precisely measured. Following this, the total protein lysates underwent 10% sodium dodecyl sulfate-polyacrylamide gel electrophoresis (SDS-PAGE). This method efficiently separated the proteins based on their molecular weights. Subsequently, the separated proteins were transferred onto a nitrocellulose membrane (#HATF00010, […], Madison, WI, USA). The membranes were then successively incubated with the indicated primary antibodies. These antibodies were diluted in 5% bovine serum albumin (BSA) in Tris-buffered saline with Tween 20 (TBST, #TF103; Epizyme, Shanghai, China). The incubation was conducted overnight at 4°C with gentle agitation. The secondary antibodies were also diluted in 5% BSA in TBST (#TF103; Epizyme, Shanghai, China). […] Finally, after thorough washing with TBST, the membranes were developed using an enhanced chemiluminescence (ECL) substrate (#WBULS0100, Sigma-Aldrich). The chemiluminescent signal was detected, and membrane images were captured with an Imaging system (Bio-Rad, Hercules, CA, USA). ImageJ analysis software (V1.8.0.112, National Institutes of Health, NIH, Bethesda, MD, USA) was employed to analyze the intensity of protein bands, aiming to quantify the relative expression levels of the target proteins. The half-maximal degradation concentration (DC50) value, which indicates the concentrations of test compounds showing 50% protein degradation efficacy, was calculated using GraphPad Prism 8.0.

[4] = target: T4, endogenous IKZF1 (Homo sapiens, UniProt Q13422+Q96SW2); experiment: Immunoblot analysis of endogenous protein; format: cell-based; conditions: both NCI-H929 and MV-4-11 cells, 24 h, greater than pomalidomide
T4 construct: endogenous in cells; host or cells: NCI-H929 and MV-4-11
Procedure: as §2

[5] = target: T5, endogenous CK1α (Homo sapiens, UniProt P48729); experiment: Immunoblot analysis of endogenous protein; format: cell-based; conditions: both NCI-H929 and MV-4-11 cells, up to 10 μM, 24 h
T5 construct: endogenous in cells; host or cells: NCI-H929 and MV-4-11
Procedure: as §2

[6] = target: T6, endogenous IKZF3 (Homo sapiens, UniProt Q96SW2+Q9UKT9); experiment: Immunoblot analysis of endogenous protein; format: cell-based; conditions: both NCI-H929 and MV-4-11 cells, 24 h, greater than pomalidomide
T6 construct: endogenous in cells; host or cells: NCI-H929 and MV-4-11
Procedure: as §2

[7] = Pharmacokinetic study in vivo; set-up: species or system BALB/c mice; conditions: mice; for MRT inf: read-out: MRT0-inf
Procedure: BALB/c mice weighing 19–21 g were procured from Beijing Vital River Laboratory Animal Technology Co., Ltd. (Beijing, China). The animals were housed under conditions of constant temperature and humidity, with a 12-h light-dark cycle for lighting. The mice had free access to water and food but were fasted for 12 h before intragastric administration. This study has been approved by the Animal Care and Use Committee Ethics Committee of the National Beijing Center for Drug Safety Evaluation and Research; the approval number is IACUC-DWZX-2024-P557.
Six male BALB/c mice were randomly assigned to two groups, with three mice in each group. MGD-C9 was administered via intravenous (i.v., 2 mg/kg in a solution of 10% DMSO, 2% Tween 80% and 88% H2O) and oral (p.o., 50 mg/kg in the same vehicle) routes to assess its pharmacokinetic (PK) characteristics. Blood samples (0.05 mL) were collected into heparinized tubes at pre-dose and at 0, 0.0833-, 0.25-, 0.5-, 1-, 2-, 4-, 6-, 8-, and 24 h post-administration. Plasma samples were obtained by centrifuging the blood for 10 min.
The plasma supernatant was then stored at −80°C and thawed at room temperature for subsequent analysis. For preparation, 10 μL of plasma was mixed with 10 μL working solution, followed by protein precipitation with 50 μL acetonitrile containing propranolol hydrochloride internal standard (50 ng/mL). After vortexing (1 min) and centrifugation (18,800× g, 10 min, 4°C), the supernatant was collected, diluted two-fold with 50% acetonitrile/water (v/v), and mixed. MGD-C9 plasma concentrations were quantified by LC-MS/MS using Analyst 1.5.1 (Applied Biosystem, Shanghai, China).
Automated peak integration was performed for atlas samples. The peak area ratio (sample/internal standard) was used for concentration regression analysis, applying linear regression with 1/X^2 weighting. Pharmacokinetic parameters (AUC, t1/2, MRT) across administration routes, and Cmax/Tmax after oral dosing, were calculated via non-compartmental analysis using WinNonlin v6.3 (Pharsight, Lawrenceville, GA, USA).
Experimental data were presented as “Mean ± SD” (n = 3).

[8] = male, BALB/c, mouse, plasma, iv, 2 mg/kg
[9] = male, BALB/c, mouse, plasma, po, 50 mg/kg

T3 sequence (Q96SW2 whole entry partner): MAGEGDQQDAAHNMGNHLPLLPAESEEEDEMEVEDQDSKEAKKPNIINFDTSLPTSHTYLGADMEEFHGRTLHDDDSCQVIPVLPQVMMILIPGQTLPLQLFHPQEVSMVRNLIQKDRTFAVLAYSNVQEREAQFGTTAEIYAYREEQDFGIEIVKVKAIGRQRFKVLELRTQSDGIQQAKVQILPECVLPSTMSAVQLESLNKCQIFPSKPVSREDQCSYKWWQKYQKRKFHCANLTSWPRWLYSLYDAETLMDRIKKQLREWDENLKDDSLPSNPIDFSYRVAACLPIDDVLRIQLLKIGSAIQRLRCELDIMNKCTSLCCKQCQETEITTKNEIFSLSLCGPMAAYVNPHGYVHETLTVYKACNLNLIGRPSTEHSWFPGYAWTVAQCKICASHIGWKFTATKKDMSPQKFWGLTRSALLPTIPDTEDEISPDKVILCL
T3 sequence (Q16531 whole entry partner): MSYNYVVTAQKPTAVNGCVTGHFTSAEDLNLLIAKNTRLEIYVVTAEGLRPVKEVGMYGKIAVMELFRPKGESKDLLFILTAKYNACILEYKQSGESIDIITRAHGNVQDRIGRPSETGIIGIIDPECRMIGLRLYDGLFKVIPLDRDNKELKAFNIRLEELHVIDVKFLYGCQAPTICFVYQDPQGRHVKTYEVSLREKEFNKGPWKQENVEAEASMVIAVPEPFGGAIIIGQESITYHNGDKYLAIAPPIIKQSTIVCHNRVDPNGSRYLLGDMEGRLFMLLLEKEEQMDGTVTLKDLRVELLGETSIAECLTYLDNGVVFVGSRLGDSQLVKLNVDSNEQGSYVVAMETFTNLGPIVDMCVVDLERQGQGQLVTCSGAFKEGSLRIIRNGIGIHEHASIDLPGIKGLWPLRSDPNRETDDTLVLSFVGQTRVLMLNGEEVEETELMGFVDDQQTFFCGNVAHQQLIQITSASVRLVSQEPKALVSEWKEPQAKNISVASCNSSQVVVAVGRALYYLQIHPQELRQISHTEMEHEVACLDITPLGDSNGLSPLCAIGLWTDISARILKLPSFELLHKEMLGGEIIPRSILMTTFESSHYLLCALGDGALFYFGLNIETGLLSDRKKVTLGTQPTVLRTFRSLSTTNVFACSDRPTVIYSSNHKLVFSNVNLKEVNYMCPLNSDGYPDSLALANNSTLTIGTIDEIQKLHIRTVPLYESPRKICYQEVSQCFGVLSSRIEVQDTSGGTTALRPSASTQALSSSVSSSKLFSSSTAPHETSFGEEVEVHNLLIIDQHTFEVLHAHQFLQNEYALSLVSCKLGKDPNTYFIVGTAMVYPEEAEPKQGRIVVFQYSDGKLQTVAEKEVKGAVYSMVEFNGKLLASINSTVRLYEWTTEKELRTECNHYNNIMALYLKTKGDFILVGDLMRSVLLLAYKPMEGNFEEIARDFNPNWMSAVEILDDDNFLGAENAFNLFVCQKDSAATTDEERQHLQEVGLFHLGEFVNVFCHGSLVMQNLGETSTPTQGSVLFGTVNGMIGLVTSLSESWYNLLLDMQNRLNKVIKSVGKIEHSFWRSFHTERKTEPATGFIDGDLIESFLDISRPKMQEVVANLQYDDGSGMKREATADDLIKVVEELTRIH
T3 sequence (P15170 whole entry): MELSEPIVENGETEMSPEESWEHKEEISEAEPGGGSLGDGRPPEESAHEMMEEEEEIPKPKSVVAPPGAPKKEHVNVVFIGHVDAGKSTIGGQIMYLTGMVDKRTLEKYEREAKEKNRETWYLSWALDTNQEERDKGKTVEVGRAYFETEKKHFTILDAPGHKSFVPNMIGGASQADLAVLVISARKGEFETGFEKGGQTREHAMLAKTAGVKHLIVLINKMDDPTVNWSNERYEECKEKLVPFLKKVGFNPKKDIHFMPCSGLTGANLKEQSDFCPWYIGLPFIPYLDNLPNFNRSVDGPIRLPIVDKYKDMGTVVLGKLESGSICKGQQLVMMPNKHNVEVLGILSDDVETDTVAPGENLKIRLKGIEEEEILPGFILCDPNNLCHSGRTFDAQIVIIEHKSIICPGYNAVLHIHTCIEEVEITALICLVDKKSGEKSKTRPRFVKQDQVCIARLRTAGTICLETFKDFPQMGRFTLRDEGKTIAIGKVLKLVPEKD
T5 sequence (Q96SW2 whole entry partner): as the sequence (Q96SW2 whole entry partner) above
T5 sequence (Q16531 whole entry partner): as the sequence (Q16531 whole entry partner) above
T5 sequence (P48729 whole entry): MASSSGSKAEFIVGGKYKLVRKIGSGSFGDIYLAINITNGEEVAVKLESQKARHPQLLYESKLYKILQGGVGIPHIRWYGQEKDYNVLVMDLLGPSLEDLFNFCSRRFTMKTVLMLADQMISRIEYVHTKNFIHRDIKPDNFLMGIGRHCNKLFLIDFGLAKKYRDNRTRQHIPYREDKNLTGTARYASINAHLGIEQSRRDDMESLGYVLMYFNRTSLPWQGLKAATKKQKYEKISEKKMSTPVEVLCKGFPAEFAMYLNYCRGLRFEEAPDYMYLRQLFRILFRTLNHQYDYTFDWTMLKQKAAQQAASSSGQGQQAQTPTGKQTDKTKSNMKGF
T1 sequence (Q96SW2 whole entry partner): as the sequence (Q96SW2 whole entry partner) above
T1 sequence (Q16531 whole entry partner): as the sequence (Q16531 whole entry partner) above
T1 sequence (Q9UKS7 whole entry): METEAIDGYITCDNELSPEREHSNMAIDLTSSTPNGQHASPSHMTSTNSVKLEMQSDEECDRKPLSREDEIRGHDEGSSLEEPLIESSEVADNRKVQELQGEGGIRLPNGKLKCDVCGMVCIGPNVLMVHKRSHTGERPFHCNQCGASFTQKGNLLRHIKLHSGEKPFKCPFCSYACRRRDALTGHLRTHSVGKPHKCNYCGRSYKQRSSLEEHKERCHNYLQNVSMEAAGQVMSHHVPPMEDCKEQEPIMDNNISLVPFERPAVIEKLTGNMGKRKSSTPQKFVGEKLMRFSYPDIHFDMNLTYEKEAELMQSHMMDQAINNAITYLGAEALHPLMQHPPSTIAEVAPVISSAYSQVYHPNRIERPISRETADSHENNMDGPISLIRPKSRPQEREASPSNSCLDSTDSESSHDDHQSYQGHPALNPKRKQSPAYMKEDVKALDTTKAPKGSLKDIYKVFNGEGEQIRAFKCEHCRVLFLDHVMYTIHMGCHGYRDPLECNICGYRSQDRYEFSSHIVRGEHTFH
T2 sequence (Q96SW2 whole entry partner): as the sequence (Q96SW2 whole entry partner) above
T2 sequence (Q16531 whole entry partner): as the sequence (Q16531 whole entry partner) above
T2 sequence (P48729 whole entry): as the sequence (P48729 whole entry) above
T4 sequence (Q13422 whole entry): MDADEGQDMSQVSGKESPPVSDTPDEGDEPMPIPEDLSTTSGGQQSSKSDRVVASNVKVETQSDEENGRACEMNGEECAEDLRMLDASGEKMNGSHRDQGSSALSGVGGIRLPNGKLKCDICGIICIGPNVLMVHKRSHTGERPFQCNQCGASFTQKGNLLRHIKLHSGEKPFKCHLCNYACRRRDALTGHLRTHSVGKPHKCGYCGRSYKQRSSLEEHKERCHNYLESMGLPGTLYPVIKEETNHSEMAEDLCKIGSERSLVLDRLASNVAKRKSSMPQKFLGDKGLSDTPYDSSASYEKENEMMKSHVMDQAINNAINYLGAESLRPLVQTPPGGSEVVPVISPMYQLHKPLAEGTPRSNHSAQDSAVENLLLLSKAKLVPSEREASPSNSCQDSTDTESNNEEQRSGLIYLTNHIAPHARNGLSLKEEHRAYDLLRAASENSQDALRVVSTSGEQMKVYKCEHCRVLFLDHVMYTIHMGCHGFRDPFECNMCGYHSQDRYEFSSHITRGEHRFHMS
T4 sequence (Q96SW2 whole entry): as the sequence (Q96SW2 whole entry partner) above
T4 sequence (Q16531 whole entry partner): as the sequence (Q16531 whole entry partner) above
T6 sequence (Q9UKT9 whole entry): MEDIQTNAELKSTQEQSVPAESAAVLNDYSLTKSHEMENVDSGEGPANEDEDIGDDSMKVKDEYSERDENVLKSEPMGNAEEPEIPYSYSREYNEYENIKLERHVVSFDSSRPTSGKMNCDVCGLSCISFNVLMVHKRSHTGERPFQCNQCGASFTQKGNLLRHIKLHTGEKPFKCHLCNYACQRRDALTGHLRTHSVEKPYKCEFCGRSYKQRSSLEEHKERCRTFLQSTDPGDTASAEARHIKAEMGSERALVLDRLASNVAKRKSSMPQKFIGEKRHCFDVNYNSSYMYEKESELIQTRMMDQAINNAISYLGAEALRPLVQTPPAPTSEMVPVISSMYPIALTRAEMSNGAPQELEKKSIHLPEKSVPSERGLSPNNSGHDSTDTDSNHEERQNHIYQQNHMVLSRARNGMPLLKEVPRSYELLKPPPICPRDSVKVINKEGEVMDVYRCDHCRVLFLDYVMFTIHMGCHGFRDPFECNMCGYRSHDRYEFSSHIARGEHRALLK
T6 sequence (Q96SW2 whole entry): as the sequence (Q96SW2 whole entry partner) above
T6 sequence (Q16531 whole entry partner): as the sequence (Q16531 whole entry partner) above

SMILES	effect on luminescence signals from IKZF2-HiBit [1]	degradation effect on luminescence signals of CK1α-HiBit [2]	degradation of endogenous GSPT1 [3]	degradation of endogenous IKZF1 [4]	degradation of endogenous CK1α [5]	degradation of endogenous IKZF3 [6]	AUC(0-inf) [7, 8] [ng·h/mL]	Cmax [7, 8] [ng/mL]	half-life [7, 8] [min]	MRT inf ([7]; male, BALB/c, mouse, plasma, iv, i.v., 2 mg/kg) [min]	Vd ([7]; male, BALB/c, mouse, plasma, iv, i.v., 2 mg/kg, read-out: Vz) [L/kg]	bioavailability ([7]; male, BALB/c, mouse, plasma, oral, p.o. 50 mg/kg vs i.v. 2 mg/kg, read-out: F (oral bioavailability)) [%]	Tmax [7, 9] [min]	AUC(0-inf) [7, 9] [ng·h/mL]	Cmax [7, 9] [ng/mL]	half-life [7, 9] [min]	MRT inf ([7]; male, BALB/c, mouse, plasma, po, p.o., 50 mg/kg) [min]	Vz ([7]; p.o., 50 mg/kg) [L/kg]
CN1CCN(Cc2cccc(C(=O)NC3CCC(=O)NC3=O)c2)CC1 (stereo not drawn) [MGD-A7, N-(2,6-dioxopiperidin-3-yl)-3-((4-methylpiperazin-1-yl)methyl)benzamide]	minimal inhibition	minimal degradation effects	minimal degradation effects	effectively induced the degradation	minimal degradation effects	effectively induced the degradation												
CN1CCN(Cc2cccc(C(=O)NC3CCC(=O)NC3=O)c2F)C(=O)C1 (stereo not drawn) [MGD-C9, N-(2,6-dioxopiperidin-3-yl)-2-fluoro-3-((4-methyl-2-oxopiperazin-1-yl)methyl)benzamide]	minimal inhibition	minimal degradation effects	minimal degradation effects	effectively induced the degradation	minimal degradation effects	effectively induced the degradation	1360 ± 190	3690 ± 713	12 ± 4.2	15.6 ± 7.2	0.42 ± 0.14	33.5	~30	11400 ± 553	5590 ± 222	53.4 ± 13.8	90.6 ± 10.2	5.62 ± 1.23
